# Laboratory results taken from patent US12037333B2, “Pyridopyrazine and pyridotriazine inhibitors of influenza virus replication” (priority 2018, dated 2024).
# Tested on: Influenza type B (cell culture adapted strain B/Lee/40, ATCC VR-1535)
# Experiment: Influenza antiviral assay: inhibition of virus-induced cytopathic effects (CPE) in MDCK cells, XTT dye reduction
# Format: cell-based
# Details: Influenza B virus, MDCK, 96 h, strain B/Lee/40, MDCK cells, CPE inhibition at 4 days
row,Structure (SMILES),EC50 [nM]
1,CC1N(C)C(=O)c2c(O)c(=O)ccn2N1C12c3ccccc3CC1Cc1c(Cl)cccc12 (stereo not drawn) [Compound A94],250 to 375
2,CCN1C(=O)c2c(O)c(=O)ccn2N(C23c4ccccc4CC2Cc2c(Cl)cccc23)C1C (stereo not drawn) [Compound A95],< 125
3,CN1CN(C23c4cc(F)ccc4CC2Cc2c(Cl)cccc23)n2ccc(=O)c(O)c2C1=O (stereo not drawn) [Compound A96],< 125
4,CCN1CN(C23c4ccccc4CC2Cc2c3ccc(C)c2F)n2ccc(=O)c(O)c2C1=O (stereo not drawn) [Compound A98],< 125
5,O=C1c2c(O)c(=O)ccn2N(C23c4ccccc4CC2Cc2c3ccc(F)c2F)CN1CC1CCCCC1 (stereo not drawn) [Compound A99],250 to 375
6,O=C1c2c(O)c(=O)ccn2N(C23c4ccccc4CC2Cc2c3ccc(F)c2F)CN1CC1CCCC1 (stereo not drawn) [Compound A100],250 to 375
7,COCCN1CN(C23c4ccccc4CC2Cc2c(Cl)cccc23)n2ccc(=O)c(O)c2C1=O (stereo not drawn) [Compound A101],< 125
8,O=C1c2c(O)c(=O)ccn2N(C23c4ccccc4CC2Cc2c(Cl)cccc23)CN1CCCF (stereo not drawn) [Compound A102],< 125
9,O=C1c2c(O)c(=O)ccn2N(C23c4ccccc4CC2Cc2c(Cl)cccc23)CN1C1CCC1 (stereo not drawn) [Compound A103],125 to 250
10,O=C1c2c(O)c(=O)ccn2N(C23c4ccccc4CC2Cc2c(Cl)cccc23)CN1CC1CCCC1 (stereo not drawn) [Compound A104],125 to 250
11,O=C1c2c(O)c(=O)ccn2N(C23c4ccccc4CC2Cc2c(Cl)cccc23)CN1CC(F)F (stereo not drawn) [Compound A105],< 125
12,"CN1C(=O)c2c(O)c(=O)ccn2N(C23C(=Cc4c(F)cccc42)Cc2c(F)cccc23)C1CN (stereo not drawn) [Compound A106, 2-(aminomethyl)-1-(1,8-difluoroindeno[1,2-a]inden-4b(9H)-yl)-5-hydroxy-3-methyl-2,3-dihydro-1H-pyrido[2,1-f][1,2,4]triazine-4,6-dione]",< 125
13,"CN1C(=O)c2c(O)c(=O)ccn2N(C23c4cccc(F)c4CC2Cc2c(F)cccc23)C1CN (stereo not drawn) [Compound A107, 2-(aminomethyl)-1-(1,8-difluoro-9a,10-dihydroindeno[1,2-a]inden-4b(9H)-yl)-5-hydroxy-3-methyl-2,3-dihydro-1H-pyrido[2,1-f][1,2,4]triazine-4,6-dione]",125 to 250
14,O=C1c2c(O)c(=O)ccn2N(C23c4ccccc4CC2Cc2c(Cl)cccc23)CN1CC1CC1 (stereo not drawn) [Compound A108],250 to 375
15,COCCN1CN(C23c4ccccc4CC2Cc2ccccc23)n2ccc(=O)c(O)c2C1=O (stereo not drawn) [Compound A110],< 125
16,O=C1c2c(O)c(=O)ccn2N(C23c4ccccc4CC2Cc2c(Cl)cccc23)CN1CCF (stereo not drawn) [Compound A111],125 to 250
17,O=C1c2c(O)c(=O)ccn2N(C23c4ccccc4CC2Cc2c(Cl)cccc23)CN1CC1CCC1 (stereo not drawn) [Compound A112],250 to 375
18,COCCN1C(=O)c2c(O)c(=O)ccn2N(C23c4ccccc4CC2Cc2c3ccc(F)c2F)C1C (stereo not drawn) [Compound A113],125 to 250
19,CC1N(CCF)C(=O)c2c(O)c(=O)ccn2N1C12c3ccccc3CC1Cc1c(Cl)cccc12 (stereo not drawn) [Compound A115],250 to 375
20,CCN1CN(C23c4ccccc4CC2(C)Cc2cc(F)ccc23)n2ccc(=O)c(O)c2C1=O (stereo not drawn) [Compound A116],< 125
21,CC(C)CN1C(=O)c2c(O)c(=O)ccn2N(C23c4ccccc4CC2Cc2c(F)cccc23)C1C (stereo not drawn) [Compound A117],250 to 375
22,CC(C)CN1C(=O)c2c(O)c(=O)ccn2N(C23c4ccccc4CC2Cc2c(Cl)cccc23)C1C (stereo not drawn) [Compound A118],250 to 375
23,CC1N(CCF)C(=O)c2c(O)c(=O)ccn2N1C12c3ccccc3CC1Cc1c(F)cccc12 (stereo not drawn) [Compound A121],125 to 250
24,COCCN1C(=O)c2c(O)c(=O)ccn2N(C23c4ccccc4CC2Cc2c(F)cccc23)C1C (stereo not drawn) [Compound A124],375 to 500
25,COCCN1C(=O)c2c(O)c(=O)ccn2N(C23c4ccccc4CC2Cc2c(Cl)cccc23)C1C (stereo not drawn) [Compound A125],125 to 250
26,CN1CN(C23c4ccccc4CC2(C)Cc2cc(F)ccc23)n2ccc(=O)c(O)c2C1=O (stereo not drawn) [Compound A126],< 125

# Same assay, conditions: strain B/Lee/40, MDCK cells, CPE inhibition at 4 days
row,Structure (SMILES),EC50 [nM]
1,O=C1c2c(O)c(=O)ccn2N(C23c4ccccc4CC2Cc2c(Cl)cccc23)CN1CCF (stereo not drawn) [Compound A114],125 to 250
